Experimental data published in US10875857B2, “1-amino-triazolo(1,5-A)pyridine-substituted urea derivative and uses thereof” (Kala Pharmaceuticals, Inc., priority 2014, dated 2020).
pIC50: −log10 of the molar value.

How the values were obtained:
VEGFR2 = target: T1, VEGFR2 (Homo sapiens, UniProt P35968); assay: Cellular VEGFR2 tyrosine auto-phosphorylation assay in HUE cells after VEGF-A stimulation (sandwich ELISA); assay type: cell-based; conditions: 90 min incubation with compound, then 3 min stimulation with 100 ng/ml VEGF-A, phosphorylated VEGFR2 by ELISA, read-out: cellular 1050 values, VEGFR2
T1 construct: The human umbilical endothelial (HUE) cell line expresses high levels of VEGFR2; endogenous in cells; host or cells: HUE (human umbilical endothelial) cell line
T1 sequence (P35968 20-1356): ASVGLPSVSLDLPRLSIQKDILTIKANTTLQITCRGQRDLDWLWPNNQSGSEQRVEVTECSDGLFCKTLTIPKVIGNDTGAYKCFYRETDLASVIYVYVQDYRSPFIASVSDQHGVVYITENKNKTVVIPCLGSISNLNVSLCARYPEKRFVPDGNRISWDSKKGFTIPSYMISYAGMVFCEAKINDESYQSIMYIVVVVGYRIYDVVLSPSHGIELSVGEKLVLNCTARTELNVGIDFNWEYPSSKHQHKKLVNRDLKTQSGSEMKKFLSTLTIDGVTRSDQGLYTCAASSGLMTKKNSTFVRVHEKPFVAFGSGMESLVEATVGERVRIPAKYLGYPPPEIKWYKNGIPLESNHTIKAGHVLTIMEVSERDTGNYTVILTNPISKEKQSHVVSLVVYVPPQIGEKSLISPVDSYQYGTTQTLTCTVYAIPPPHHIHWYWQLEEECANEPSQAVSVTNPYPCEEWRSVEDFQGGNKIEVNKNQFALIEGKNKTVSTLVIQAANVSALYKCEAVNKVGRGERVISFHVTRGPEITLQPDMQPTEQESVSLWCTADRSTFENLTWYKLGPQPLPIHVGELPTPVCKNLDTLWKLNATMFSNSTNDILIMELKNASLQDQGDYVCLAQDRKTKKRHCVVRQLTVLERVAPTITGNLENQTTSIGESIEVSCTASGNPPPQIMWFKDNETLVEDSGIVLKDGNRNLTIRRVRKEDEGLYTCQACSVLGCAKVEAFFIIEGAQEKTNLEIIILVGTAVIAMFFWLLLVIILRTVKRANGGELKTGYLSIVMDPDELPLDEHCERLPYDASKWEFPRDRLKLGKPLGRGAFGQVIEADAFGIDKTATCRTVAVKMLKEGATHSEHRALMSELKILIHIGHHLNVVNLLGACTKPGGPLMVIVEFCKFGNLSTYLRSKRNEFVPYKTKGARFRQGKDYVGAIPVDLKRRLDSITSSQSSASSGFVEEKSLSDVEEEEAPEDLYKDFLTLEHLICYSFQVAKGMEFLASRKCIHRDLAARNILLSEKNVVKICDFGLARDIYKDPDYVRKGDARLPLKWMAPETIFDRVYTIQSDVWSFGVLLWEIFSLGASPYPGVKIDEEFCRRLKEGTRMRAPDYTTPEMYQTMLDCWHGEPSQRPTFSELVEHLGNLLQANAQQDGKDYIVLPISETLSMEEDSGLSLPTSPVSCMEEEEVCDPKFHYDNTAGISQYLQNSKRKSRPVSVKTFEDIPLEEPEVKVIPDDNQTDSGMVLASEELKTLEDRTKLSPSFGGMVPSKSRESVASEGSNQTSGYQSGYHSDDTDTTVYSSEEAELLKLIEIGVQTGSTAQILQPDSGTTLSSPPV
Protocol: The human umbilical endothelial (HUE) cell line expresses high levels of VEGFR2. The compound prepared in Example 2 above, 1-(4-(3-amino-[1,2,3]triazolo[1,5-a]pyridin-4-yl)phenyl)-3-(3-chlorophenyl)urea, was tested for the ability to inhibit tyrosine auto-phosphorylation of this receptor after stimulation with vascular endothelial growth factor A (VEGF-A). HUE cells were plated into multi-well cell culture plates in endothelial cell growth medium (ECGM) supplemented with 10% fetal calf serum (FCS). After starvation in endothelial cell basal medium (ECBM) supplemented with […] overnight cells were incubated with compounds in serum-free ECBM. […] Cells were incubated for 90 min at 37° C. in ECBM with the serial diluted compound and then stimulated for 3 min with 100 ng/ml VEGF-A. Cells were lysed, and then levels of phosphorylated VEGFR2 were determined in a sandwich ELISA assay formatted in a multi-well plate using a VEGFR2 specific capture antibody and an anti-phosphotyrosine VEGFR2 detection antibody. […] IC50 values were determined by fitting the converted eight point dose response data to a four-parameter logistic equation using GRAPHPAD PRISM® 5.01 software.

PDGFR-β = target: T2, PDGFR-β (Mus musculus, UniProt P05622); assay: Cellular PDGFR-β tyrosine auto-phosphorylation assay in NIH3T3 cells after PDGF-BB stimulation (sandwich ELISA); assay type: cell-based, murine; conditions: 90 min incubation with compound, then 3 min stimulation with 100 ng/ml PDGF-BB, phosphorylated PDGFR-β by ELISA, read-out: cellular 1050 values, PDGFR-β
T2 construct: The murine embryonal fibroblast cell line NIH3T3 expresses endogenously high levels of PDGFR-β; endogenous in cells; host or cells: NIH3T3 murine embryonal fibroblast cell line
T2 sequence (P05622 32-1098): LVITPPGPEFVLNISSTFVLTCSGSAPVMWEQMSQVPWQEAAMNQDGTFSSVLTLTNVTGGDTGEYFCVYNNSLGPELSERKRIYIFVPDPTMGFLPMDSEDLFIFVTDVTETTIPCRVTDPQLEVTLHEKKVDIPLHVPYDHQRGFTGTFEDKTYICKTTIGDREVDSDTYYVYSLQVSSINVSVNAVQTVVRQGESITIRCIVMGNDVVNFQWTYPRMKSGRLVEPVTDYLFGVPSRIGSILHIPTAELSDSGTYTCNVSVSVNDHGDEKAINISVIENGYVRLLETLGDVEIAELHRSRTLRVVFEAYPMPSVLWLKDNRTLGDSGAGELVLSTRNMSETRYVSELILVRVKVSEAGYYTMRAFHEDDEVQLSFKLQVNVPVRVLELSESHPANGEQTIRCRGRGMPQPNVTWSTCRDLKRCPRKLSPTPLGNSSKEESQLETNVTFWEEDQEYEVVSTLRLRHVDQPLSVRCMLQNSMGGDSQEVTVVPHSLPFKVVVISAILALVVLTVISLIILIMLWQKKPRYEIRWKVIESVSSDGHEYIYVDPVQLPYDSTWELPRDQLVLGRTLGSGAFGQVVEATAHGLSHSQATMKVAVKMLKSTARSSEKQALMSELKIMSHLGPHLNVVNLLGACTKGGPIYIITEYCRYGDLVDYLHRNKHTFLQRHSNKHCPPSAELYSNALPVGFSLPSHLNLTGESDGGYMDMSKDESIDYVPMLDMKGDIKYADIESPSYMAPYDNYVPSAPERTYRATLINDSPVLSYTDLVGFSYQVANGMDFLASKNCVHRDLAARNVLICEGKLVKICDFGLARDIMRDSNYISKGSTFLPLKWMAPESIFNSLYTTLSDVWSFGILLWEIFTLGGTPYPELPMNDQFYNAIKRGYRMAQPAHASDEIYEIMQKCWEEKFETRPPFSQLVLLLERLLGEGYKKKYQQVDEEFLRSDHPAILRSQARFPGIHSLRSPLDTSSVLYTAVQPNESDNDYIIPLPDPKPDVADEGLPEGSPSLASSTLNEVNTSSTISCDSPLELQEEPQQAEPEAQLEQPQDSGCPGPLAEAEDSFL
Protocol: The murine embryonal fibroblast cell line NIH3T3 expresses endogenously high levels of PDGFR-β. The compound prepared in Example 2 above was tested for the ability to inhibit tyrosine auto-phosphorylation of this receptor after stimulation with platelet-derived growth factor BB (PDGF-BB). The NIH3T3 cells were plated into multi-well cell culture plates in Dulbecco's Modified Eagle Medium (DMEM) supplemented with 10% FCS. The medium was removed and then replaced with DMEM without FCS and cells serum starved overnight at 37° C. On the day of the assay the compound was 1:3 serial diluted from 10 mM stocks in 100% DMSO and then were 1:100 diluted to each well of cells in DMEM without FCS to create final solutions containing 1% DMSO and an eight point compound dose response curve starting at 10^−6 M, 10^−7 M, or 10^−8 M. The compound was added in duplicate to columns of the multi-well plate. […] Cells were lysed, and then levels of phosphorylated PDGFR-β were determined in a sandwich ELISA assay formatted in a multi-well plate using a PDGFR-β specific capture antibody and an anti-phosphotyrosine PDGFR-β detection antibody. […] IC50 values were determined by fitting the converted eight point dose response data to a four-parameter logistic equation using GRAPHPAD PRISM® 5.01 software.

pIC50 (VEGFR2): 9.43
pIC50 (PDGFR-β): 8.49
SMILES: Nc1nnn2cccc(-c3ccc(NC(=O)Nc4cccc(Cl)c4)cc3)c12 [compound of Formula (I), 1-(4-(3-amino-[1,2,3]triazolo[1,5-a]pyridin-4-yl)phenyl)-3-(3-chlorophenyl)urea]
